Results on two molecules are retold here after patent publication US10059760B2 (priority 2014, dated 2018).

For the series the following is noted: mouse, in vivo.

Like-named read-outs stand apart in the source and are kept apart here.

Consider `O=C(O)c1cn(C2CC2)c2cc(N3CCNCC3)c(F)cc2c1=O` [ciprofloxacin], for which, where the note is “sc, 25 mg/kg”, the tolerance result is “favorably tested”.

On to `C[C@H]1c2cccc(O)c2C(=O)C2=C(O)[C@]3(O)C(=O)C(C(N)=O)=C(O)[C@@H](N(C)C)[C@@H]3[C@@H](O)[C@@H]21` [doxycycline], for which the tolerance entry (50 mg/kg) is “poorly tolerated”.
